Reference: patent US20220315908A1, “NOVEL GARDNERELLA ENDOLYSINS AND USES THEREOF” (priority 2019, published 2022)
≈ marks a conversion by molar mass, not a printed value. Where two headings read alike, the source gives them in different places.

What was measured:
[1] = test system: G. vaginalis (Gv_9); assay: MIC and MBC microbroth dilution; assay type: cell-based, Gardnerella vaginalis; settings: for MIC / MBC: Gardnerella vaginalis; for MIC: 48 h
Method: (§1) One of the main deficiencies in the treatment of BV is the high rate of recurrence in many women, which leads to repeated administration of antibiotics and concomitant destabilization of the microbiome and other side effects. The minimal inhibitory concentration (MIC) and minimal bactericidal concentration (MBC) on Gardnerella cells of the strains also used for the endolysin activity assays were then measured using the method described in Reference Example 6 and 7. […] Essentially, Gardnerella suspensions at 2.5×10^7 CFU/ml were incubated with the concentration of antibiotics as indicated and incubated for 48 h at 37° C. under anaerobic conditions. […] OD(610) was measured at the beginning and the end of the experiment. At the end of the experiment, 2 ul of each reaction mix was spotted on agar to determine the MBC.
(§2) The conditions under which MIC and MBC were measured are more rigorous than the standard.
(§3) Example 7—Activity assays of a representative (H2B10) of domain swapped endolysins on the growth in suspension of different Gardnerella strains. […] The conditions under which MBC was measured are more rigorous than the standard. […] In general, it is known, that antibiotics only insufficiently eradicate the Gardnerella biofilm, a hallmark of BV, which is one suspected reason for the reported very high recurrence rate of BV. Despite leaving residual viable biofilm, antibiotics wipe parts of the beneficial organisms of the vaginal microbiome which then opens an ecological niche for other pathogens, e.g. fungi.
(§4) Bacteria were plated from cryo stock on BD Choc Agar plates (Gardnerella) and incubated at 37° C. for 48 h under anaerobic conditions. Colonies were scraped from the plate, resuspended in Hardy Broth or NYC-III-HS-pH 5.0, and the suspension adjusted to OD (610 or 620 nm as indicated) 0.05. It has to be noted that two Tecan Microplate readers, having respectively a 610 nm or 620 nm filter, have been used interchangeably in the experiments. Although it doesn't make any difference for the experiments, the exact wavelength used is specified in each example. Antibiotics were prepared as 20× stocks for each of the required final concentrations. 95 μl of cell suspension was mixed with 5 μl antibiotics dilution in a 384-well plate. OD (610-620 as indicated) at the start of the reaction was measured, then the plate was incubated at 37° C. for 48 h under anaerobic conditions. After that, the OD (610-620 as indicated) was measured again for MIC determination, where MIC was defined as the lowest concentration of antibiotic where the OD (610-620 as indicated) was not above the level measured at the beginning of the experiment. After measuring OD, 2 μl of each well were spotted on a NYC-III+HS Agar plate. The plates were then incubated for further 48 h at 37° C. under anaerobic conditions. After incubation, cell growth on each spot was evaluated, and the MBC defined as the lowest concentration of antibiotics where no bacteria grew on the plate. The experiments were conducted in triplicate for each condition. In the second round of MIC and MBC experiments with antibiotics the Gardnerella cell suspension was adjusted to the McFarland standard 0.5 (approximately OD (610) 0.07) and then diluted 1:75 according to the CLSI (Clinical and Laboratory Standards Institute) standards. Antibiotics were prepared according to the CLSI standards and 50 μl of cell suspension was mixed in a 96-well plate with 50 μl antibiotics. Otherwise the MIC and MBC was determined as described above.

[2] = test system: G. leopoldii (Gv_11); assay: MIC and MBC microbroth dilution; assay type: cell-based, Gardnerella leopoldii; settings: for MIC / MBC: Gardnerella leopoldii; for MIC: 48 h
Method: as §1, §2, §3, §4

[3] = test system: all tested Gardnerella strains; assay: MIC and MBC microbroth dilution, stated over all tested strains; assay type: cell-based; settings: for MIC: Gardnerella
Method: as §1, §2, §3
Bacteria were plated from cryo stock on BD Choc Agar plates (Gardnerella) and incubated at 37° C. for 48 h under anaerobic conditions. Colonies were scraped from the plate, resuspended in Hardy Broth or NYC-III-HS-pH 5.0, and the suspension adjusted to OD (610 or 620 nm as indicated) 0.05. It has to be noted that two Tecan Microplate readers, having respectively a 610 nm or 620 nm filter, have been used interchangeably in the experiments. Although it doesn't make any difference for the experiments, the exact wavelength used is specified in each example. Antibiotics were prepared as 20× stocks for each of the required final concentrations. […] OD (610-620 as indicated) at the start of the reaction was measured, then the plate was incubated at 37° C. for 48 h under anaerobic conditions. After that, the OD (610-620 as indicated) was measured again for MIC determination, where MIC was defined as the lowest concentration of antibiotic where the OD (610-620 as indicated) was not above the level measured at the beginning of the experiment. […] After incubation, cell growth on each spot was evaluated, and the MBC defined as the lowest concentration of antibiotics where no bacteria grew on the plate.

[4] = first round: […]10^7 CFU/ml, Hardy broth, 384-well, 48 h 37° C. anaerobic
[5] = second round: 1×10^5-1×10^6 CFU/ml (CLSI), NYC-III broth, 96-well, 48 h anaerobic
[6] = second round: 1×10^5-1×10^6 CFU/ml (CLSI), NYC-III broth, 96-well

- MIC [1, 4]: 128 µg/mL (≈ 748 µM)
- MIC [1, 5]: 8 µg/mL (≈ 46.7 µM)
- resistance class of MIC, Metronidazole ([1]; first round): R (>=32 μg/mi for Metronidazole)
- MIC [2, 4]: > 128 µg/mL
- MIC [2, 5]: 128 µg/mL (≈ 748 µM)
- resistance class of MIC, Metronidazole ([2]; first round): R (>=32 μg/mi for Metronidazole)
- resistance class printed with MIC, Metronidazole ([2]; second round): R (>=32 μg/mi for Metronidazole)
- MIC ([3]; 48 h, first round: […]10^7 CFU/ml, 48 h anaerobic (FIG. 14), read-out: MIC over all Gardnerella strains): 64 to 128 µg/mL (≈ 374 to 748 µM)
- MIC ([3]; second round: 1×10^5-1×10^6 CFU/ml (FIG. 15), read-out: MIC over all tested Gardnerella strains): 8 to 128 µg/mL (≈ 46.7 to 748 µM)
Compound: Cc1ncc([N+](=O)[O-])n1CCO [Metronidazole]
- MBC ([1]; first round: […]10^7 CFU/ml, minimal concentration fully eradicating the suspension): > 128 µg/mL
- MBC [1, 6]: 16 µg/mL (≈ 93.5 µM)
- resistance class given with MBC, Metronidazole ([1]; second round): R (>=32 μg/mi for Metronidazole)
- MBC [2, 6]: > 128 µg/mL
- MBC ([2]; first round: 2.5×10^7 CFU/ml, minimal concentration fully eradicating the suspension): > 128 µg/mL
- resistance class given with MBC, Metronidazole ([2]; second round): R (>=32 μg/mi for Metronidazole)
- susceptibility of the Gardnerella strains, in words ([3]; MIC microbroth dilution): resistant
